Molecular target: Glutaminyl cyclase (QC) (Homo sapiens (Human), UniProt Q16769)
Assay: Glutaminyl cyclase assay, determination of IC50 values and calculation of Ki values (H-Gln-AMC substrate, pGAP auxiliary enzyme; pH 8.0 or pH 6.0)
Assay type: biochemical
Details: pH 6, read-out: hQC Ki [μM] pH6
Procedure: 10 mM compound stock solutions were prepared in DMSO. For IC50 determination compound stocks were serially diluted (1:3) in DMSO.
All measurements were performed with an EnSpire Perkin Elmer multimode reader using glutaminyl-7-amino-4-methylcoumarin (H-Gin-AMC) as substrate and recombinant pyroglutamyl aminopeptidase (pGAP) as auxiliary enzyme. Reactions were carried out at ambient temperature in black 96-well half area microplates. Each sample consisted of 1 μl test compound solution or solvent (DMSO) and 49 μl QC appropriately diluted in assay buffer (50 mM Tris/HCl, pH 8.0 or 50 mM MES buffer, pH=6.0). After a 10 min preincubation at ambient temperature the enzyme reaction was started by adding 50 μl of Gln-AMC-substrate/pGAP mixture in assay buffer. Final substrate concentrations were 50 and 200 μM for measurement at pH 8.0 or 6.0, respectively. Release of flourogenic AMC were recorded at excitation/emission wavelengths of 380/460 nm. Initial velocity of the enzyme reaction was calculated by linear regression of the first 10 data points using the Enspire Manager software. Final evaluation and calculation of IC50s were performed using GraphPad Prism software.
Ki-values were calculated according to the following formula: Ki=IC50/(1+[S]/Km), where: […]

Sequence of Glutaminyl cyclase (QC) (Q16769 29-361): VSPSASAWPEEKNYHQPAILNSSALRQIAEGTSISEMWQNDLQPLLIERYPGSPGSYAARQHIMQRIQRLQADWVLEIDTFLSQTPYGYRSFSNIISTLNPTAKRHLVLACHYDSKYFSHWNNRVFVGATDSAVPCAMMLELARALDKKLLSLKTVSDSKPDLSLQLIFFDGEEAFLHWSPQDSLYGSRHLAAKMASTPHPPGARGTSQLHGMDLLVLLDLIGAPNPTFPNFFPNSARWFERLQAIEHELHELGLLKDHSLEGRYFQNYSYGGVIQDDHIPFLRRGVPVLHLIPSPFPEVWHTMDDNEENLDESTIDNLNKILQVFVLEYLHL

In order of rising Ki:
1. COc1ccc(-c2c(F)cccc2NCc2ccc3[nH]cnc3c2)cc1OC [O23, N-(1H-1,3-benzodiazol-5-ylmethyl)-2-(3,4-dimethoxyphenyl)-3-fluoroaniline]  0.055 µM
2. Nc1nnc(C2CCN(c3ccccc3-c3ccc(F)cc3)CC2)s1 [Comp 1075, 5-(1-{4′-fluoro-[1,1′-biphenyl]-2-yl}piperidin-4-yl)-1,3,4-thiadiazol-2-amine]  0.09 µM
3. COc1ccc(-c2nccnc2NCc2ccc3[nH]cnc3c2)cc1OC [O12, N-(1H-1,3-benzodiazol-5-ylmethyl)-3-(3,4-dimethoxyphenyl)pyrazin-2-amine]  0.13 µM
4. COc1ccc(-c2ccccc2NCCCc2nncn2C)cc1OC [Comp 384, 3′,4′-dimethoxy-N-[3-(4-methyl-4H-1,2,4-triazol-3-yl)propyl]-[1,1′-biphenyl]-2-amine]  0.13 µM
5. COc1ccc(-c2ccccc2Nc2ccc(-c3nnc(N)s3)cc2)cc1OC [Comp 561, 5-(4-{[2-(3,4-dimethoxyphenyl)phenyl]amino}phenyl)-1,3,4-thiadiazol-2-amine]  0.42 µM
6. COc1ccc(-c2c(C)cccc2NCc2ccc3[nH]cnc3c2)cc1OC [O21, N-(1H-1,3-benzodiazol-5-ylmethyl)-2-(3,4-dimethoxyphenyl)-3-methylaniline]  0.43 µM
7. COc1ccc(-c2ccccc2Nc2ccc(-c3nncn3C)cc2)cc1OC [Comp 854, 3′,4′-dimethoxy-N-[4-(4-methyl-4H-1,2,4-triazol-3-yl)phenyl]-[1,1′-biphenyl]-2-amine]  0.44 µM
8. COc1ccc(-c2ccccc2Nc2ccc(-c3nncn3C)cc2)cc1 [D3, N-[2-(4-methoxyphenyl)phenyl]-4-(4-methyl-4H-1,2,4-triazol-3-yl)aniline]  0.99 µM
9. Nc1nnc(-c2ccc(Nc3nccnc3-c3ccc(F)cc3)cc2)s1 [C9, N-[4-(5-amino-1,3,4-thiadiazol-2-yl)phenyl]-3-(4-fluorophenyl)pyrazin-2-amine]  1.66 µM
10. COc1ccc(-c2ncccc2Nc2ccc(-c3nncn3C)cc2)cc1 [D4, 2-(4-methoxyphenyl)-N-[4(4-methyl-4H-1,2,4-triazol-3-yl)phenyl]pyridin-3-amine]  1.7 µM
11. COc1ccc(-c2ccccc2Nc2ccc(-c3nnc(N)s3)cc2)cc1 [C4, 5-(4-{[2-(4-methoxyphenyl)phenyl]amino}phenyl)-1,3,4-thiadiazol-2-amine]  1.87 µM
12. COc1ccc(-c2c(C)cccc2NCc2ccc3[nH]cnc3c2)cc1 [O20, N-(1H-1,3-benzodiazol-5-ylmethyl)-2-(4-methoxyphenyl)-3-methylaniline]  2.38 µM
13. COc1ccc(-c2cccnc2Nc2ccc(-c3nnc(N)s3)cc2)cc1 [C5, N-[4-(5-amino-1,3,4-thiadiazol-2-yl)phenyl]-3-(4-methoxyphenyl)pyridin-2-amine]  4.17 µM
14. Fc1cccc(NCc2ccc3[nH]cnc3c2)c1-c1ccc(Cl)cc1 [O22, N-(1H-1,3-benzodiazol-5-ylmethyl)-2-(4-chlorophenyl)-3-fluoroaniline]  4.89 µM
15. Cn1cnnc1SCCNS(=O)(=O)c1ccc(F)cc1 [G2, 4-fluoro-N-{2-[(4-methyl-4H-1,2,4-triazol-3-yl)sulfanyl]ethyl}benzene-1-sulfonamide]  8.84 µM
16. COc1ccc(-c2ncccc2NCc2ccc3[nH]cnc3c2)cc1 [O4, N-(1H-1,3-benzodiazol-5-ylmethyl)-2-(4-methoxyphenyl)pyridin-3-amine]  9.52 µM
17. Fc1ccc(-c2nccnc2NCc2ccc3[nH]cnc3c2)cc1 [O15, N-(1H-1,3-benzodiazol-5-ylmethyl)-3-(4-fluorophenyl)pyrazin-2-amine]  10.5 µM
18. CS(=O)(=NCCCc1nnc(N)s1)c1ccc(F)cc1 (stereo not shown) [F2, 5-(3-{[(4-fluorophenyl)(methyl)oxo-λ^6-sulfanylidene]amino}propyl)-1,3,4-thiadiazol-2-amine]  11.4 µM
19. Nc1nnc(CCCNS(=O)(=O)c2ccc(F)cc2)s1 [E2, N-[3-(5-amino-1,3,4-thiadiazol-2-yl)propyl]-4-fluorobenzene-1-sulfonamide]  18.1 µM
20. O=S(=O)(NCc1ccc2[nH]cnc2c1)c1ccc(F)cc1 [P1, N-[(1H-1,3-benzodiazol-5-yl)methyl]-4-fluorobenzene-1-sulfonamide]  38.3 µM

Same assay, conditions: pH 8, read-out: hQC Ki [μM] pH8

In order of rising Ki:
1. COc1ccc(-c2c(F)cccc2NCc2ccc3[nH]cnc3c2)cc1OC [O23, N-(1H-1,3-benzodiazol-5-ylmethyl)-2-(3,4-dimethoxyphenyl)-3-fluoroaniline]  0.1 µM
2. Nc1nnc(C2CCN(c3ccccc3-c3ccc(F)cc3)CC2)s1 [Comp 1075, 5-(1-{4′-fluoro-[1,1′-biphenyl]-2-yl}piperidin-4-yl)-1,3,4-thiadiazol-2-amine]  0.248 µM
3. COc1ccc(-c2ccccc2NCCCc2nncn2C)cc1OC [Comp 384, 3′,4′-dimethoxy-N-[3-(4-methyl-4H-1,2,4-triazol-3-yl)propyl]-[1,1′-biphenyl]-2-amine]  0.26 µM
4. COc1ccc(-c2c(C)cccc2NCc2ccc3[nH]cnc3c2)cc1OC [O21, N-(1H-1,3-benzodiazol-5-ylmethyl)-2-(3,4-dimethoxyphenyl)-3-methylaniline]  0.42 µM
5. COc1ccc(-c2nccnc2NCc2ccc3[nH]cnc3c2)cc1OC [O12, N-(1H-1,3-benzodiazol-5-ylmethyl)-3-(3,4-dimethoxyphenyl)pyrazin-2-amine]  0.42 µM
6. COc1ccc(-c2ccccc2Nc2ccc(-c3nnc(N)s3)cc2)cc1OC [Comp 561, 5-(4-{[2-(3,4-dimethoxyphenyl)phenyl]amino}phenyl)-1,3,4-thiadiazol-2-amine]  1.09 µM
7. COc1ccc(-c2ccccc2Nc2ccc(-c3nnc(N)s3)cc2)cc1 [C4, 5-(4-{[2-(4-methoxyphenyl)phenyl]amino}phenyl)-1,3,4-thiadiazol-2-amine]  1.48 µM
8. COc1ccc(-c2ccccc2Nc2ccc(-c3nncn3C)cc2)cc1OC [Comp 854, 3′,4′-dimethoxy-N-[4-(4-methyl-4H-1,2,4-triazol-3-yl)phenyl]-[1,1′-biphenyl]-2-amine]  1.48 µM
9. COc1ccc(-c2c(C)cccc2NCc2ccc3[nH]cnc3c2)cc1 [O20, N-(1H-1,3-benzodiazol-5-ylmethyl)-2-(4-methoxyphenyl)-3-methylaniline]  1.64 µM
10. COc1ccc(-c2ccccc2Nc2ccc(-c3nncn3C)cc2)cc1 [D3, N-[2-(4-methoxyphenyl)phenyl]-4-(4-methyl-4H-1,2,4-triazol-3-yl)aniline]  1.69 µM
11. COc1ccc(-c2ncccc2NCc2ccc3[nH]cnc3c2)cc1 [O4, N-(1H-1,3-benzodiazol-5-ylmethyl)-2-(4-methoxyphenyl)pyridin-3-amine]  2.96 µM
12. COc1ccc(-c2ncccc2Nc2ccc(-c3nncn3C)cc2)cc1 [D4, 2-(4-methoxyphenyl)-N-[4(4-methyl-4H-1,2,4-triazol-3-yl)phenyl]pyridin-3-amine]  3.37 µM
13. COc1ccc(-c2cccnc2Nc2ccc(-c3nnc(N)s3)cc2)cc1 [C5, N-[4-(5-amino-1,3,4-thiadiazol-2-yl)phenyl]-3-(4-methoxyphenyl)pyridin-2-amine]  4.7 µM
14. Fc1cccc(NCc2ccc3[nH]cnc3c2)c1-c1ccc(Cl)cc1 [O22, N-(1H-1,3-benzodiazol-5-ylmethyl)-2-(4-chlorophenyl)-3-fluoroaniline]  6.83 µM
15. Nc1nnc(-c2ccc(Nc3nccnc3-c3ccc(F)cc3)cc2)s1 [C9, N-[4-(5-amino-1,3,4-thiadiazol-2-yl)phenyl]-3-(4-fluorophenyl)pyrazin-2-amine]  6.89 µM
16. Nc1nnc(CCCNS(=O)(=O)c2ccc(F)cc2)s1 [E2, N-[3-(5-amino-1,3,4-thiadiazol-2-yl)propyl]-4-fluorobenzene-1-sulfonamide]  9.38 µM
17. Cn1cnnc1SCCNS(=O)(=O)c1ccc(F)cc1 [G2, 4-fluoro-N-{2-[(4-methyl-4H-1,2,4-triazol-3-yl)sulfanyl]ethyl}benzene-1-sulfonamide]  11.5 µM
18. Fc1ccc(-c2nccnc2NCc2ccc3[nH]cnc3c2)cc1 [O15, N-(1H-1,3-benzodiazol-5-ylmethyl)-3-(4-fluorophenyl)pyrazin-2-amine]  11.7 µM
19. CS(=O)(=NCCCc1nnc(N)s1)c1ccc(F)cc1 (stereo not shown) [F2, 5-(3-{[(4-fluorophenyl)(methyl)oxo-λ^6-sulfanylidene]amino}propyl)-1,3,4-thiadiazol-2-amine]  11.7 µM
20. O=S(=O)(NCc1ccc2[nH]cnc2c1)c1ccc(F)cc1 [P1, N-[(1H-1,3-benzodiazol-5-yl)methyl]-4-fluorobenzene-1-sulfonamide]  24.7 µM

Source: patent US12384772B2, “Inhibitors” (VIVORYON THERAPEUTICS N.V., priority 2017, dated 2025)
